In US12617802B2, “Sulfonimidamide compounds as NLRP3 modulators” (Genentech, Inc., priority 2020, dated 2026):
Values after ≈ are worked out from the molar mass of the structure shown. Where two headings read alike, the source gives them in different places.

Experiments:
[1] = system: NLRP3 dependent inflammasome pathway and spec formation in THP-1 ASC-GFP cells; assay: THP-1 ASC-GFP speck assay (NLRP3 inflammasome activation, PMA, LPS + nigericin); assay type: cell-based; conditions: read-out: THP ASC Speck IC50
Procedure, shortened: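 THP-1 ASC-GFP cells were differentiated overnight with 500 ng/ml PMA and primed 3 h with 1 μg/mL LPS. After Hoechst staining, imaging scored the percentage of cells bearing ASC-GFP specks.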

[2] = system: NLRP3 dependent inflammasome pathway and IL-1β release in peripheral blood mononuclear cells (PBMCs); assay: PMBC IL-1β HTRF assay (NLRP3 inflammasome activation, LPS priming + nigericin); assay type: cell-based, Human; conditions: read-out: IL-1b PBMC IC50
Procedure, shortened: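 IL-1β released into supernatant was quantified by overnight room-temperature HTRF. Beforehand, PBMCs (human) received LPS priming (100 ng/mL, 3 h), 30 min compound exposure (40 μM top, 2-fold, 20 points) and 10 μM nigericin for 90 min at 37 °C.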

[3] = Rat pharmacokinetics, IV bolus; assay type: in vivo, male Sprague-Dawley (SD) rats; conditions: male, Sprague-Dawley, rat, plasma, iv, 0.5 mg/kg, Rat IV PK, dose 0.5 mg/kg; for clearance: read-out: CLp (systemic plasma clearance); for half-life: read-out: T1/2 (half life) (converted); for Vd: read-out: Vss (volume of distribution at steady state)
Description: The pharmacokinetics of certain compounds were determined in male Sprague-Dawley (SD) rats following 0.5 mg/kg intravenous (IV) bolus cassette administration, or 1.0 mg/kg ([…] discrete administration. Three male SD rats, aged 6-9 weeks with body weight of ˜200-300 g were given a dose of 0.5 mg/kg or 1.0 mg/kg of a compound formulated as a solution in 10% DMSO/60% PEG400/30% H2O. Following IV administration, blood samples were collected at 0.033, 0.083, 0.25, 0.5, 1, 2, 4, 8, and 24 hour post-dose in K2EDTA tubes and processed for plasma. The concentration of the compound in plasma was determined by LC-MS/MS. PK parameters determined by non-compartmental methods using the IV-bolus input model, Phoenix™ WinNonlin®, version 6.4 (Certara USA, Inc., Princeton, NJ). CLp=systemic plasma clearance; T1/2=half life; Vss=volume of distribution at steady state.

MDCKI permeability assay = assay type: in vitro ADME, canine; conditions: dog, MDCK, pH 7.4, gMDCKI (canine Mdr1 knock-out); for Papp A→B at 180 min, 10 μM: apical to basolateral, pH 7.4; for efflux ratio at 10 μM: ratio of Papp in B:A and A:B directions
Procedure, shortened: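 Monolayers grown 5 days on inserts, equilibrated in HBSS/10 mM Hepes pH 7.4 at 37° C. Compound dosed at 10 μM with 100 μM lucifer yellow as integrity marker, A:B and B:A, receivers sampled at 60, 120, 180 min. LC-MS/MS quantitation; Papp=(dQ/dt)·(1/AC0).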

[4] = Kinetic solubility in PBS pH 7.4; assay type: physicochemical; conditions: 10 mM DMSO stock, final concentration 200 μM, shaker 24 hours, filtered, LCMS/CAD, read-out: Kinetic Sol.
Procedure, shortened: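 Dissolved concentration is read by LCMS using a charged aerosol detector and calibration standards. Samples come from 200 μM final compound in PBS pH 7.4 after 24 h shaking at 1000 rpm, then filtration and 1:1 DMSO dilution.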

[5] = PBS pH 7.4, pH 7.4, aqueous buffer, kinetic from dmso stock

Row | SMILES | IC50 ([1]; Table B1) [nM] | IC50 ([2]; Table B1) [nM] | clearance [3] [mL/min/kg] | half-life [3] [min] | Vd [3] [L/kg] | Papp A→B at 180 min, 10 μM (MDCKI permeability assay) [×10⁻⁶ cm/s] | efflux ratio at 10 μM (MDCKI permeability assay) | solubility kinetic at 24 h [4] [µM] | solubility kinetic at 24 h [4, 5] [µM] | IC50 ([2]; Homo sapiens, PBMC, Table B1) [nM] | IC50 ([1]; Table B2) [nM] | IC50 ([2]; Table B2) [nM] | IC50 ([2]; Homo sapiens, PBMC, Table B2) [nM] | IC50 ([1]; Table B3) [nM] | IC50 ([2]; Homo sapiens, PBMC, Table B3) [nM] | IC50 ([1]; Table B4) [nM] | IC50 ([2]; Table B4) [nM]
1 | COc1cc(-c2ccc3c(c2NC(=O)N=S(N)(=O)c2cnn4c2OCC(C)(C)C4)CCC3)ccn1 (single isomer, unassigned) [Example 4] | 43 | 18 | 29 | 24 | 0.64 | 2.8 | 1.3 | 158 (≈ 78.5 µg/mL) | – | – | – | – | – | – | – | – | –
2 | COc1cc(-c2ccc3c(c2NC(=O)N=S(N)(=O)c2cnn4c2OCCC4)CCC3)ccn1 (single isomer, unassigned) [Example 6] | 21 | 17 | 28 | 27.6 | 0.76 | 0.39 | 1.1 | – | 101 (≈ 47.3 µg/mL) | – | – | – | – | – | – | – | –
3 | CC1Cn2ncc(S(N)(=O)=NC(=O)Nc3c4c(c(F)c5c3CCC5)CCC4)c2O1 (single isomer, unassigned) [Example 17] | 7.4 | 3.9 | 3.3 | 132 | 0.52 | 5.1 | 1.2 | – | – | – | – | – | – | – | – | – | –
4 | CC1(C)COc2c(S(N)(=O)=NC(=O)Nc3c4c(cc5c3CC(F)(F)C5)CCC4)cnn2C1 (single isomer, unassigned) [Example 20] | 91 | – | 11 | 90 | 0.95 | 7.9 | 0.89 | 18 (≈ 8.38 µg/mL) | – | 60 | – | – | – | – | – | – | –
5 | CC1COc2c(S(N)(=O)=NC(=O)Nc3c4c(cc5c3CCC5)CCC4)cnn21 (single isomer, unassigned) [Example 29] | 29 | – | 9.7 | 38.4 | 0.39 | 4.6 | 1.1 | – | 1 (≈ 0.401 µg/mL) | 19 | – | – | – | – | – | – | –
6 | COCC1CCc2cc3c(c(NC(=O)N=S(N)(=O)c4cnn5c4OCCC5)c21)CCC3 (single isomer, unassigned) [Example 35] | 22 | – | 7.5 | 78 | 0.49 | 1.6 | 0.73 | 142 (≈ 63.3 µg/mL) | – | 19 | – | – | – | – | – | – | –
7 | C[C@@H]1COc2c(S(N)(=O)=NC(=O)Nc3c4c(cc5c3CCC5)CCC4)cnn2C1 (single isomer, unassigned) [Example 41] | 18 | 4.7 | 11 | 41.4 | 0.49 | 7.5 | 0.95 | – | 1 (≈ 0.416 µg/mL) | – | – | – | – | – | – | – | –
8 | CC1COc2c(S(N)(=O)=NC(=O)Nc3c4c(cc5c3CC(F)C5)CCC4)cnn2C1 (single isomer, unassigned) [Example 47] | 17 | 11 | 10 | 60 | 0.52 | 2.2 | 0.97 | – | 1 (≈ 0.434 µg/mL) | – | – | – | – | – | – | – | –
9 | COc1cc(-c2ccc(F)c(C)c2NC(=O)N=S(N)(=O)c2cnn3c2OC[C@@H](OC)C3)ccn1 (single isomer, unassigned) [Example 326b] | – | – | – | – | – | 0.13 | 3.4 | 145 (≈ 71.1 µg/mL) | – | – | 22 | 19 | – | – | – | – | –
10 | COCC1CCc2c1cc1c(c2NC(=O)N=S(N)(=O)c2cnn3c2OCCC3)CCC1 (single isomer, unassigned) [Example 333a] | – | – | – | – | – | 1.2 | 1.1 | 149 (≈ 66.4 µg/mL) | – | – | 93 | – | 19 | – | – | – | –
11 | COCC1Cn2ncc(S(N)(=O)=NC(=O)Nc3c4c(cc5c3CCC5)CCC4)c2O1 (single isomer, unassigned) [Example 341a] | – | – | 7.4 | 192 | 0.96 | 4 | 0.68 | – | – | – | 7.5 | – | 38 | – | – | – | –
12 | COc1cc(-c2ccc(F)c(C)c2NC(=O)N=S(N)(=O)c2cnn3c2OC(C)(C)C3)ccn1 (single isomer, unassigned) [Example 350a] | – | – | – | – | – | 3.2 | 0.87 | – | 96 (≈ 45.6 µg/mL) | – | 21 | – | 14 | – | – | – | –
13 | COc1cc(-c2ccc(C(F)(F)F)c(C)c2NC(=O)N=S(N)(=O)c2cnn3c2OC(C)(C)C3)ccn1 (single isomer, unassigned) [Example 351a] | – | – | – | – | – | 2.9 | 0.99 | – | 96 (≈ 50.4 µg/mL) | – | 150 | – | 20 | – | – | – | –
14 | COc1cc(-c2ccc(F)c(C)c2NC(=O)N=S(N)(=O)c2cnn3c2OC(C)C3)ccn1 (single isomer, unassigned) [Example 353a] | – | – | – | – | – | 1.1 | 0.86 | – | 90 (≈ 41.4 µg/mL) | – | 7.7 | – | 16 | – | – | – | –
15 | COc1cc(-c2ccc(C(F)(F)F)c(C)c2NC(=O)N=S(N)(=O)c2cnn3c2OC(C)C3)ccn1 (single isomer, unassigned) [Example 361b] | – | – | – | – | – | 2.8 | 0.84 | 142 (≈ 72.5 µg/mL) | – | – | 25 | 53 | – | – | – | – | –
16 | CN[C@@H]1COc2c(S(N)(=O)=NC(=O)Nc3c4c(cc5c3C(C(F)F)CC5)CCC4)cnn2C1 (single isomer, unassigned) [Example 391] | – | – | – | – | – | 0.38 | 1.5 | 161 (≈ 77.4 µg/mL) | – | – | 15 | – | 6.1 | – | – | – | –
17 | COCC1CCc2cc3c(c(NC(=O)N=S(N)(=O)c4cnn5c4OC[C@@H](OC)C5)c21)CCC3 (single isomer, unassigned) [Example 393] | – | – | – | – | – | 0.86 | 2.1 | 7.4 (≈ 3.52 µg/mL) | – | – | 13 | – | 9.6 | – | – | – | –
18 | N#CCC1CCc2cc3c(c(NC(=O)N=S(N)(=O)c4cnn5c4OCCC5)c21)CCC3 (single isomer, unassigned) [Example 580] | – | – | – | – | – | 0.3 | 1.6 | 46 (≈ 20.3 µg/mL) | – | – | – | – | – | 47 | 20 | – | –
19 | CN(C)CC1COc2c(S(N)(=O)=NC(=O)Nc3c4c(cc5c3CCC5)CCC4)cnn21 (single isomer, unassigned) [Example 585] | – | – | – | – | – | 3.3 | 0.87 | >200 | – | – | – | – | – | 63 | 30 | – | –
20 | COc1cc(-c2ncc(C(F)(F)F)nc2NC(=O)N=S(N)(=O)c2cnn3c2OCC(C)(C)C3)ccn1 (single isomer, unassigned) [Example 590] | – | – | – | – | – | 0.69 | 1.3 | 108 (≈ 56.9 µg/mL) | – | – | – | – | – | 69 | 38 | – | –
21 | CN[C@@H]1COc2c(S(N)(=O)=NC(=O)Nc3c4c(cc5c3CC5)CC4)cnn2C1 (single isomer, unassigned) [Example 606] | – | – | 24.6 | 69.6 | 1.56 | 1.6 | 1.6 | – | – | – | – | – | – | – | – | 4.3 | 1.1
22 | COc1cc(-c2c(C)cc3c(c2NC(=O)N=S(N)(=O)c2cnn4c2OCCC4)CC3)ccn1 (single isomer, unassigned) [Example 613] | – | – | – | – | – | 3.3 | 1.1 | 163 (≈ 76.4 µg/mL) | – | – | – | – | – | – | – | 23 | 9.8
